Experimental data taken from US20110172232A1, “AMINOACYL PRODRUGS AS AN ACTIVE PHARMACEUTICAL INGREDIENT FOR THROMBOEMBOLIC DISORDERS” (Bayers Schering Pharma Aktiengesellschaft, priority 2007, published 2011).

How the values were obtained:
[1] = Stability in buffer at various pH values (HPLC); type: physicochemical; settings: buffer pH 4, 37° C., acetonitrile/buffer
Method: 0.25 mg of the test substance is weighed into a 2 ml HPLC vial and 0.5 ml of acetonitrile is added. The substance is dissolved by putting the sample vessel in an ultrasonic bath for about 10 seconds. Then 0.5 ml of the respective buffer solution is added, and the sample is again treated in the ultrasonic bath.
pH 4.0:1 liter of Millipore water is adjusted to pH 4.0 with 1 N hydrochloric acid;
pH 7.4: 90 g of sodium chloride, 13.61 g of potassium dihydrogen phosphate and 83.35 g of 1 M sodium hydroxide solution are made up to 1 liter with Millipore water and then diluted 1:10.
10 μl portions of the test solution are analyzed by HPLC for their content of unchanged test substance every hour over a period of 24 hours at 37° C. The percentage areas of the appropriate peaks are used for quantification.
Agilent 1100 with DAD (G1314A), binary pump (G1312A), autosampler (G1329A), column oven (G1316A), thermostat (G1330A); column: Kromasil 100 C18, 125 mm×4 mm, 5 μm; column temperature: 30° C.; mobile phase A: water+5 ml of perchloric acid/liter, mobile phase B: acetonitrile.

[2] = In vitro stability in human plasma (HPLC detection); type: in vitro ADME; settings: 37° C., read-out: half-life of degradation with release of the active ingredient compound (A)
Method: (§1) c) In Vitro Stability in Rat Plasma and Human Plasma (HPLC Detection):
(§2) 0.5 mg of substance is dissolved in 1 ml of dimethyl sulfoxide/water 1:1. 500 μl of this sample solution are mixed with 500 μl of rat plasma at 37° C. and shaken. A first sample (10 μl) is immediately taken for HPLC analysis. In the period up to 2 h after the start of incubation, further aliquots are taken after 2, 5, 10, 30, 60 and 90 min, and the contents of the respective test substance and of the active ingredient compound (A) liberated therefrom are determined.
(§3) Agilent 1100 with DAD (G1314A), binary pump (G1312A), autosampler (G1329A), column oven (G1316A), thermostat (G1330A); column: Kromasil 100 C18, 250 mm×4.6 mm, 5 μm; column temperature: 30° C.; mobile phase A: water+5 ml of perchloric acid/liter, mobile phase B: acetonitrile.

[3] = In vitro stability in rat plasma (HPLC detection); type: in vitro ADME; settings: 37° C., read-out: half-life of degradation with release of the active ingredient compound (A)
Method: as §1, §2, §3

In the case of `CCCCNCCCC(=O)N(C[C@H]1CN(c2ccc(N3CCOCC3=O)cc2F)C(=O)O1)C(=O)c1ccc(Cl)s1` [Example 22, N-[4-(Butylamino)butanoyl]-5-chloro-N-({(5S)-2-oxo-3-[2-fluoro-4-(3-oxomorpholin-4-yl)phenyl]-1,3-oxazolidin-5-yl}methyl)thiophene-2-carboxamide], the “time stable in solution at pH 4” value [1] is reported as “more than 16 h”, the half-life at 0.25 mg/mL [2] is reported as < 2 min and the half-life at 0.25 mg/mL [3] is reported as < 2 min.
